Read-outs that look alike come from different tables or passages of the source.
What was measured:
[1] = target: norepinephrine transporter (Homo sapiens, UniProt P23975); experiment: NE uptake: displacement of norephinephrine ligands in vitro (methods of Galli et al.); type: binding; conditions: NE Uptake, Uptake Profile (IC50, nM)
ICR derived mice = experiment: In vivo evaluation of 4: acute toxic symptoms, autonomic effects and mortality after i.v. dosing; parameters: species or system mouse; conditions: i.v., 5, 10, 20, and 30 mk/kg
Protocol: Compound 4 was administered i.v. to a group of 3 ICR derived male or female mice (˜22 gms) and observed for the presence of acute toxic symptoms (mortality, convulsions, tremors, muscle relaxation, sedation, etc.) and autonomic effects (diarrhea, salvation, lacrimation, vasodilation, piloerection, etc) during first 5 min (i.v).
Compound 4 was administered at doses of 5, 10, 20, and 30 mk/kg. […] After monitoring daily for 3 days, no mortality was observed.

dopamine transporter = dopamine transporter (Homo sapiens, UniProt Q01959); experiment: DA uptake: displacement of dopamine ligands in vitro (methods of Gu et al.); conditions: DA Uptake, Uptake Profile (IC50, nM), displacement of dopamine ligands in vitro
Chain of dopamine transporter (Q01959 whole entry): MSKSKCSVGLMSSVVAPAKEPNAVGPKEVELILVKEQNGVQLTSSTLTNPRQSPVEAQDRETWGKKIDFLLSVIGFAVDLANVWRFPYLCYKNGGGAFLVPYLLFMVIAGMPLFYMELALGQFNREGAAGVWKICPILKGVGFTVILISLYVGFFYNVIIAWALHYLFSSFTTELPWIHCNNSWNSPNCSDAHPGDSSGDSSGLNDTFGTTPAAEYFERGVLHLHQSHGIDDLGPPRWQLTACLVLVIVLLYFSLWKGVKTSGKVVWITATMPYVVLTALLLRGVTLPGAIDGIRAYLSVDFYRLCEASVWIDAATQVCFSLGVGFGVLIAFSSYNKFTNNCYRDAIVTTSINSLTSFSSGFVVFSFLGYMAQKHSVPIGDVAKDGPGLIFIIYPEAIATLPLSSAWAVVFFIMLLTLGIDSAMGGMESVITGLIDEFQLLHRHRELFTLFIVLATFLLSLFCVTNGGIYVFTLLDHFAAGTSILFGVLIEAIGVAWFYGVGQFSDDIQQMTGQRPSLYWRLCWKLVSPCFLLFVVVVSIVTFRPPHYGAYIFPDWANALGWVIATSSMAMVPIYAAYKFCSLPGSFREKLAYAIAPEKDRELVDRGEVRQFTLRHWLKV

serotonin transporter = serotonin transporter (Homo sapiens, UniProt P31645); experiment: 5-HT uptake: displacement of serotonin ligands in vitro (methods of Gu et al.); type: binding; conditions: 5-HT Uptake, Uptake Profile (IC50, nM)
Chain of serotonin transporter (P31645 whole entry): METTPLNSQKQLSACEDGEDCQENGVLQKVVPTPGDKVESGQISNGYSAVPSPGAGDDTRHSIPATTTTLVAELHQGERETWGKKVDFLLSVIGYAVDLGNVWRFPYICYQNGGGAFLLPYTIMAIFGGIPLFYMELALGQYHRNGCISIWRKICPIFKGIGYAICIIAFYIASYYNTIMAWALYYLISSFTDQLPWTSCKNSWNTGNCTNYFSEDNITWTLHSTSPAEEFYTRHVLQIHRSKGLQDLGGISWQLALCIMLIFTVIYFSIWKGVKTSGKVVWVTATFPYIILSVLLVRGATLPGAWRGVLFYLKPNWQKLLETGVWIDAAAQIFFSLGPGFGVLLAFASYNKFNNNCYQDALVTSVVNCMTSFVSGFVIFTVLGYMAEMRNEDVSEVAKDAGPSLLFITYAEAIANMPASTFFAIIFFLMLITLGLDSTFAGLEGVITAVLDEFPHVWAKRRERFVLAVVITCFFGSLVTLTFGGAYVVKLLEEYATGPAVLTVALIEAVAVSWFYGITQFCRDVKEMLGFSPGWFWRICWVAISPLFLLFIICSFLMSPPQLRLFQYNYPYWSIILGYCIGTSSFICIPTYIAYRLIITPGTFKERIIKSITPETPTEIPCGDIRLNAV

DAT [2] = target: T1, DAT (Homo sapiens, UniProt Q01959); experiment: cell-based; parameters: expressed in transfected cells; conditions: hDAT cell line; read-out: DA Uptake, Functional Assays (antagonism, EC50)
T1 sequence (Q01959 whole entry): as the sequence (Q01959 whole entry) above

[3] = baboon, cited from earlier work
DAT [4] = target: T1, DAT; conditions: dosed orally, 60 mg; cited from earlier work
Sprague-Dawley rats [5] = experiment: Spontaneous locomotor activity in rats, 1-24 hours (Example 223); type: in vivo, rat; conditions: 10 mg/kg i.p.
Protocol: The effect of 124 and 126 on spontaneous locomotor activity in rats was determined according to the procedures outlined by Silverman et al. (Motor Activity. In “Animal behavior in the laboratory”, Chapman and Hall eds, London, p. 79-92, 1978) and Boissier et al. (Arch. Int. Pharmacodyn. 1965, 158, 212. ) Test items and test item vehicles were administered to male Sprague-Dawley rats (n=10) as a single i.p. dose. One, three, five, eight and twenty four hours following administration, rats were placed in a plastic box 30×30 cm in a room with low light intensity (maximum 50 lux). Locomotor activity was determined during 20 minute periods using video image analyzers. Images recorded with video cameras were digitalized and displacements of the center of gravity of the digital image spot were tracked and analyzed. When the speed of displacement of the center of gravity of the spot was below 4.26 cm/sec, the movement was considered as inactivity. When this speed was between 4.26 and 6.75 cm/sec, the movement was considered as a small movement. When this speed was above 6.75 cm/sec, the movement was considered as a large movement. The number of occurrences, distance and duration of fast and slow movements, number of occurrences and duration of periods of inactivity and number of rears were measured.

Sprague-Dawley rats [6] = experiment: Spontaneous locomotor activity in rats (Example 141); type: in vivo, rat; conditions: 10 mg/kg i.p.
Protocol: The effect of 124 and 126 on spontaneous locomotor activity in rats was determined according to the procedures outlined by Silverman et al. (Motor Activity. In “Animal behavior in the laboratory”, Chapman and Hall eds, London, p. 79-92, 1978) and Boissier et al. (Arch. Int. Pharmacodyn. 1965, 158, 212. )
Test items and test item vehicles were administered to male Sprague-Dawley rats (n=10) as a single i.p. dose (vehicle A=10% hydroxypropyl-β-cyclodextrin in water; vehicle B=4:1 5% aqueous dextrose:PEG 400). […] Locomotor activity was determined during 20 minute periods using video image analyzers. Images recorded with video cameras were digitalized and displacements of the center of gravity of the digital image spot were tracked and analyzed. When the speed of displacement of the center of gravity of the spot was below 4.26 cm/sec, the movement was considered as inactivity. When this speed was between 4.26 and 6.75 cm/sec, the movement was considered as a small movement. When this speed was above 6.75 cm/sec, the movement was considered as a large movement. The number of occurrences, distance and duration of fast and slow movements, number of occurrences and duration of periods of inactivity and number of rears were measured.

[7] = cited from earlier work
[8] = rodents, ex vivo binding; cited from earlier work
rats and monkeys = conditions: monkeys; cited from earlier work

Chain of norepinephrine transporter (P23975 whole entry): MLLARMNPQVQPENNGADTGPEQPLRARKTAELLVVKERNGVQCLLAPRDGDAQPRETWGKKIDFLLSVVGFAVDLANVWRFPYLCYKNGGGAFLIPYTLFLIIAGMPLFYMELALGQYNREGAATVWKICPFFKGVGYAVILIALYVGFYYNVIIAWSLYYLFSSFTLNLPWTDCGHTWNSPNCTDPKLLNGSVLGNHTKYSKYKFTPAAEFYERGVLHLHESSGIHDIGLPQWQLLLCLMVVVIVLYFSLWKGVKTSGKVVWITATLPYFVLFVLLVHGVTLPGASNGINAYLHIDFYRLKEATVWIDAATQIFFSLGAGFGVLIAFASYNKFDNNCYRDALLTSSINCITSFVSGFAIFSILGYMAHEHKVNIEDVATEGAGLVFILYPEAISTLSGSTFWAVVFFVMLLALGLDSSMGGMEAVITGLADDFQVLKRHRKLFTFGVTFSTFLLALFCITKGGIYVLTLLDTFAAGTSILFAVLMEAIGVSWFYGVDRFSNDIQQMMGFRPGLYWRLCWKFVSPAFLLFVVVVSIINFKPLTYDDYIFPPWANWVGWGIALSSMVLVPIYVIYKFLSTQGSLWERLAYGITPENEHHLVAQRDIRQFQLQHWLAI

Structure (SMILES): Clc1ccc(C2(CN3CCCC(COc4ccccc4)C3)CCC2)cc1 (stereo not shown) [compound 4]
- IC50 [1]: > 1000 nM
- change in autonomic signs of behavior (ICR derived mice): No obvious change
- mortality (ICR derived mice; monitored daily for 3 days): no mortality
- IC50 (dopamine transporter): < 1000 nM
- IC50 (serotonin transporter): > 1000 nM
- EC50 (DAT [2]): < 1 µM

Structure (SMILES): COC(=O)C(c1ccccc1)C1CCCCN1 (stereo not shown) [methylphenidate, reference compound]
- time to peak concentration in brain ([3]; intravenous): 8 to 10 min
- time to peak concentration in brain ([3]; orally dosed): 60 min
- DAT occupancy (DAT [4]): 70-72%
- “high” in subjects (DAT [4]): no “high” was observed
- Large Movement Occurrences (Sprague-Dawley rats [5]; 1 hour): 958 ± 118 ^
- Small Movement Occurrences (Sprague-Dawley rats [5]; 1 hour): 1595 ± 83 ^
- Large Movement Occurrences (Sprague-Dawley rats [5]; 3 hours): 504 ± 114 ^
- Small Movement Occurrences (Sprague-Dawley rats [5]; 3 hours): 1072 ± 122^
- Large Movement Occurrences (Sprague-Dawley rats [5]; 5 hours): 196 ± 62^
- Small Movement Occurrences (Sprague-Dawley rats [5]; 5 hours): 612 ± 108 ^
- Large Movement Occurrences (Sprague-Dawley rats [5]; 8 hours): 71 ± 20 ^
- Small Movement Occurrences (Sprague-Dawley rats [5]; 8 hours): 358 ± 65^
- Large Movement Occurrences (Sprague-Dawley rats [5]; 24 hours): 335 ± 68^
- Small Movement Occurrences (Sprague-Dawley rats [5]; 24 hours): 790 ± 81^
- Large Movement Occurrences (Sprague-Dawley rats [6]; 20 min): 974.3 ± 125.5 ^
- Small Movement Occurrences (Sprague-Dawley rats [6]; 20 min): 1537.0 ± 97.3 ^
- Large Movement Occurrences (Sprague-Dawley rats [6]; 60 min): 423.9 ± 75.9
- Small Movement Occurrences (Sprague-Dawley rats [6]; 60 min): 992.0 ± 126.7 ^
- Large Movement Occurrences (Sprague-Dawley rats [6]; 120 min): 191.8 ± 37.1 ^
- Small Movement Occurrences (Sprague-Dawley rats [6]; 120 min): 555.0 ± 87.0
- time of peak uptake into the brain ([7]; dosed intravenously): 8 to 10 min
- half-life in the brain ([7]; intravenous): 1.5 h

Structure (SMILES): CCC(=O)[C@H]1[C@@H](c2ccc(C)cc2)C[C@@H]2CC[C@H]1N2C [PPT, 2β-propanoyl-3β-(4-tolyl)-tropane]
- time of onset after administration [8]: ca. 30 minutes
- addictiveness (rats and monkeys): not addictive
- decrease of self-administered cocaine intake (rats and monkeys): 70%

From patent US7294637B2 (Sepracor, Inc., priority 2000, dated 2007)
